{"source": "patent US8871756B2", "about": "(Hoffmann-La Roche Inc., priority 2011, dated 2014)", "note": "Where a name gives a salt, the structure may show the parent alone.", "data": [{"system": "RSV Long strain", "assay": "Viral cytopathic effect (CPE) assay, anti-RSV activity", "type": "cell-based, Respiratory Syncytial Virus", "details": "human respiratory syncytial virus, 144 h, RSV Long strain (ATCC); cell viability after 6 days, Cell Counting kit-8", "protocol": "Viral cytopathic effect (CPE) assay: To measure anti-RSV activity of compounds, 96-well plates are seeded with 6×10^3 cells per well in Dulbecco's modified Eagle's medium (DMEM) containing 10% fetal bovine serum (FBS). Cells are infected the next day with sufficient RSV Long strain (ATCC) to produce an approximately 80-90% cytopathic effect after 6 days, in the presence of serial half-log diluted compound in a total volume of 200 μL per well. The viability of cells is assessed after 6 days using Cell Counting kit-8 (Dojindo Molecular Technologies). The absorbance at 450 nm and referenced at 630 nm is measured to determine 50% effective concentration (EC50).\nThe compounds of the present invention were tested for their anti-RSV activity, and the activation as described herein. The Examples were tested in the above assay and found to have EC50 of about 0.0001 μM to about 10 μM.", "units": {"EC50": "µM"}, "values": [{"smiles": "Cc1ccc2nc(N3CCS(=O)(=O)c4ccccc4C3)cc(N3CCCNCC3)c2c1", "note": "[Example 3-36, 4-[4-(1,4-Diazepan-1-yl)-6-methylquinolin-2-yl]-2,3,4,5-tetrahydro-1,4-benzothiazepine 1,1-dioxide]", "EC50": 0.092}, {"smiles": "Cc1ccc2nc(N3CCS(=O)(=O)c4ccccc4C3)nc(NCC(F)CN)c2c1", "note": "(stereo not drawn) [Example 56-5, N-[2-(1,1-Dioxido-2,3-dihydro-1,4-benzothiazepin-4(5H)-yl)-6-methylquinazolin-4-yl]-2-fluoropropane-1,3-diamine]", "EC50": 0.022}, {"smiles": "NCCNc1cc(N2CCCc3c(Cl)cccc3C2)nc2ccccc12", "note": "[Example 118-12, N-[2-(6-Chloro-1,3,4,5-tetrahydro-2H-2-benzazepin-2-yl)quinolin-4-yl]ethane-1,2-diamine]", "EC50": 0.448}, {"smiles": "COc1cccc2c1S(=O)(=O)CCN(c1cc(NCC3(N)COC3)c3cc(C)ccc3n1)C2", "note": "[Example 65, N-[(3-Aminooxetan-3-yl)methyl]-2-(9-methoxy-1,1-dioxido-2,3-dihydro-1,4-benzothiazepin-4(5H)-yl)-6-methylquinolin-4-amine]", "EC50": 0.322}, {"smiles": "Cc1ccc2nc(N3CCS(=O)(=O)c4ccccc4C3)cc(N3CC[C@@H](O)C3)c2c1", "note": "[Example 15-4, (3R)-1-[2-(1,1-Dioxido-2,3-dihydro-1,4-benzothiazepin-4(5H)-yl)-6-methylquinolin-4-yl]pyrrolidin-3-ol]", "EC50": 0.257}, {"smiles": "Cc1ccc2nc(N3CCS(=O)(=O)c4ccccc4C3)cc(NCC(F)(F)CN)c2c1", "note": "[Example 3-19, N-[2-(1,1-Dioxido-2,3-dihydro-1,4-benzothiazepin-4(5H)-yl)-6-methylquinolin-4-yl]-2,2-difluoropropane-1,3-diamine]", "EC50": 0.009}, {"smiles": "Cc1ccc2nc(N3CCS(=O)(=O)c4ccccc4C3)cc(NC(CN)(CO)CO)c2c1", "note": "[Example 72, 2-(Aminomethyl)-2-{[2-(1,1-dioxido-2,3-dihydro-1,4-benzothiazepin-4(5H)-yl)-6-methylquinolin-4-yl]amino}propane-1,3-diol]", "EC50": 0.002}, {"smiles": "Cc1ccc2nc(N3CCS(=O)(=O)c4ccccc4C3)cc(NC(=O)C(C)(C)N)c2c1", "note": "[Example 40-2, N-[2-(1,1-Dioxido-2,3-dihydro-1,4-benzothiazepin-4(5H)-yl)-6-methylquinolin-4-yl]-2-methylalaninamide]", "EC50": 4.66}, {"smiles": "NCCCNc1cc(N2CCS(=O)(=O)c3ccccc3C2)nc2ccc(Oc3ccccn3)cc12", "note": "[Example 31, N-[2-(1,1-Dioxido-2,3-dihydro-1,4-benzothiazepin-4(5H)-yl)-6-(pyridin-2-yloxy)quinolin-4-yl]propane-1,3-diamine]", "EC50": 0.702}, {"smiles": "NC1(CNc2nc(N3CCSc4ccccc4C3)nc3ccccc23)COC1", "note": "[Example 57-1, N-[(3-Aminooxetan-3-yl)methyl]-2-(2,3-dihydro-1,4-benzothiazepin-4(5H)-yl)quinazolin-4-amine]", "EC50": 0.067}, {"smiles": "Cc1ccc2nc(N3CCNc4ccccc4C3)cc(NCCN)c2c1", "note": "[Example 133-2, N-[6-Methyl-2-(1,2,3,5-tetrahydro-4H-1,4-benzodiazepin-4-yl)quinolin-4-yl]ethane-1,2-diamine]", "EC50": 0.186}, {"smiles": "Cc1ccc2nc(N3CCS(=O)(=O)c4ccc(O)cc4C3)cc(NCC3(N)COC3)c2c1", "note": "[Example 66, 4-(4-{[(3-Aminooxetan-3-yl)methyl]amino}-6-methylquinolin-2-yl)-2,3,4,5-tetrahydro-1,4-benzothiazepin-7-ol 1,1-dioxide]", "EC50": 0.002}, {"smiles": "Cc1ccc2nc(N3CCS(=O)(=O)c4ccccc4C3)cc(NCC(C)(C)CN)c2c1", "note": "[Example 9-14, N-[2-(1,1-Dioxido-2,3-dihydro-1,4-benzothiazepin-4(5H)-yl)-6-methylquinolin-4-yl]-2,2-dimethylpropane-1,3-diamine]", "EC50": 0.025}, {"smiles": "Cc1ccc2nc(N3CCS(=O)(=O)c4ccccc4C3)cc(NC[C@H](C)N)c2c1", "note": "[Example 5-8, (2S)—N˜1˜-[2-(1,1-Dioxido-2,3-dihydro-1,4-benzothiazepin-4(5H)-yl)-6-methylquinolin-4-yl]propane-1,2-diamine]", "EC50": 0.022}, {"smiles": "CSc1ccc2nc(N3CCS(=O)(=O)c4ccccc4C3)cc(NCCCN)c2c1", "note": "[Example 9-33, N-[2-(1,1-Dioxido-2,3-dihydro-1,4-benzothiazepin-4(5H)-yl)-6-(methylsulfanyl)quinolin-4-yl]propane-1,3-diamine]", "EC50": 0.057}, {"smiles": "Cc1ccc2nc(N3CCS(=N)(=O)c4ccccc4C3)cc(N3CC(N)C(O)C3)c2c1", "note": "(stereo not drawn) [Example 78-1, trans-4-Amino-1-[2-(1-imino-1-oxido-1,2,3,5-tetrahydro-4H-1lambda˜4˜,4-benzothiazepin-4-yl)-6-methylquinolin-4-yl]pyrrolidin-3-ol]", "EC50": 0.016}, {"smiles": "NC1(CNc2cc(N3CCS(=O)(=O)c4ccccc4C3)nc3ccc(Cl)cc23)COC1", "note": "[Example 3-22, N-[(3-Aminooxetan-3-yl)methyl]-6-chloro-2-(1,1-dioxido-2,3-dihydro-1,4-benzothiazepin-4(5H)-yl)quinolin-4-amine]", "EC50": 0.032}, {"smiles": "Cc1ccc2nc(N3CCS(=O)(=O)c4ccccc4C3)cc(NC3CCCNC3)c2c1", "note": "(stereo not drawn) [Example 3-40, 2-(1,1-Dioxido-2,3-dihydro-1,4-benzothiazepin-4(5H)-yl)-6-methyl-N-(piperidin-3-yl)quinolin-4-amine]", "EC50": 0.022}, {"smiles": "CC(C)(N)CNc1cc(N2CCS(=O)(=O)c3ccccc3C2)nc2ccccc12", "note": "[Example 5-4, N˜1˜-[2-(1,1-Dioxido-2,3-dihydro-1,4-benzothiazepin-4(5H)-yl)quinolin-4-yl]-2-methylpropane-1,2-diamine]", "EC50": 0.326}, {"smiles": "Cc1ccc2nc(N3CCSc4ccccc4C3)nc(NCC3(CN)COC3)c2c1", "note": "[Example 62-6, N-{[3-(Aminomethyl)oxetan-3-yl]methyl}-2-(2,3-dihydro-1,4-benzothiazepin-4(5H)-yl)-6-methylquinazolin-4-amine]", "EC50": 0.006}, {"smiles": "Cc1ccc2nc(N3CCS(=O)(=O)c4ccccc4C3)cc(N3C[C@@H](N)[C@H](F)C3)c2c1", "note": "(relative stereo) [Example 78-2, trans-1-[2-(1,1-Dioxido-2,3-dihydro-1,4-benzothiazepin-4(5H)-yl)-6-methylquinolin-4-yl]-4-fluoropyrrolidin-3-amine]", "EC50": 0.25}, {"smiles": "Cc1ccc2nc(N3CCS(=O)(=O)c4ccccc4C3)cc(NC3(CNC(=O)C(F)(F)F)COC3)c2c1", "note": "[Example 70, N-[(3-{[2-(1,1-Dioxido-2,3-dihydro-1,4-benzothiazepin-4(5H)-yl)-6-methylquinolin-4-yl]amino}oxetan-3-yl)methyl]-2,2,2-trifluoroacetamide]", "EC50": 0.071}, {"smiles": "Cc1ccc2nc(N3CCS(=O)(=O)c4ccccc4C3)cc(N3CCC(C)(O)C3)c2c1", "note": "(stereo not drawn) [Example 3-45, 1-[2-(1,1-Dioxido-2,3-dihydro-1,4-benzothiazepin-4(5H)-yl)-6-methylquinolin-4-yl]-3-methylpyrrolidin-3-ol]", "EC50": 5.23}, {"smiles": "Cc1ccc2nc(N3CCS(=O)(=O)c4ccccc4C3)cc(NCC(C)(O)CN)c2c1", "note": "(stereo not drawn) [Example 11-4, 1-Amino-3-{[2-(1,1-dioxido-2,3-dihydro-1,4-benzothiazepin-4(5H)-yl)-6-methylquinolin-4-yl]amino}-2-methylpropan-2-ol]", "EC50": 0.004}, {"smiles": "NCCCNc1cc(N2CCS(=O)(=O)c3ccccc3C2)nc2ccc(C(N)=O)cc12", "note": "[Example 81, 4-[(3-Aminopropyl)amino]-2-(1,1-dioxido-2,3-dihydro-1,4-benzothiazepin-4(5H)-yl)quinoline-6-carboxamide]", "EC50": 0.353}, {"smiles": "N=C(N)NCCNc1cc(N2CCCc3ccccc3C2)nc2ccccc12", "note": "[Example 125, 1-(2-{[2-(1,3,4,5-Tetrahydro-2H-2-benzazepin-2-yl)quinolin-4-yl]amino}ethyl)guanidine trifluoroacetate]", "EC50": 2.52}, {"smiles": "Clc1cc(N2CCCc3ccccc3C2)nc2ccccc12", "note": "[Example 118-26, 2-(4-Chloroquinolin-2-yl)-2,3,4,5-tetrahydro-1H-2-benzazepine]", "EC50": 7.75}, {"smiles": "Cc1ccc2nc(N3CCS(=O)(=O)c4ccccc4C3)cc(NCC(O)CO)c2c1", "note": "(stereo not drawn) [Example 32-1, 3-{[2-(1,1-Dioxido-2,3-dihydro-1,4-benzothiazepin-4(5H)-yl)-6-methylquinolin-4-yl]amino}propane-1,2-diol]", "EC50": 0.019}, {"smiles": "Cc1ccc2nc(N3CCS(=O)(=O)c4ccccc4C3C)cc(NCC3(N)COC3)c2c1", "note": "(stereo not drawn) [Example 2-8, N-[(3-Aminooxetan-3-yl)methyl]-6-methyl-2-(5-methyl-1,1-dioxido-2,3-dihydro-1,4-benzothiazepin-4(5H)-yl)quinolin-4-amine]", "EC50": 0.055}, {"smiles": "Cc1ccc2nc(N3Cc4ccccc4S(=O)(=O)C(C)C3)cc(NCCN)c2c1", "note": "(stereo not drawn) [Example 69-1, N-[6-Methyl-2-(2-methyl-1,1-dioxido-2,3-dihydro-1,4-benzothiazepin-4(5H)-yl)quinolin-4-yl]ethane-1,2-diamine]", "EC50": 0.007}, {"smiles": "Cc1ccc2nc(N3CCS(=O)(=O)c4ccccc4C3)cc(NCC3CNCCO3)c2c1", "note": "(stereo not drawn) [Example 21-1, 2-(1,1-Dioxido-2,3-dihydro-1,4-benzothiazepin-4(5H)-yl)-6-methyl-N-(morpholin-2-ylmethyl)quinolin-4-amine]", "EC50": 0.023}, {"smiles": "Cc1ccc2nc(N3CC[S+]([O-])c4ccccc4C3)cc(N3C[C@@H](N)[C@H](O)C3)c2c1", "note": "(relative stereo) [Example 19-1, trans-4-Amino-1-[6-methyl-2-(1-oxido-2,3-dihydro-1,4-benzothiazepin-4(5H)-yl)quinolin-4-yl]pyrrolidin-3-ol]", "EC50": 0.043}, {"smiles": "Cc1ccc2nc(N3CCS(=O)(=O)c4ccccc4C3)cc(NCCC#N)c2c1", "note": "[Example 83, 3-{[2-(1,1-Dioxido-2,3-dihydro-1,4-benzothiazepin-4(5H)-yl)-6-methylquinolin-4-yl]amino}propanenitrile]", "EC50": 0.662}]}]}
